Data published in patent US20260042764A1, “COMPOSITIONS AND METHODS FOR INHIBITION OF KRAS” (TheRas, Inc., priority 2022, published 2026).

Legend:
[1] = target: T1, Avi-KRAS G12V (1-169) GppNHp/RAF1 RBD-3xFLAG (52-151) (Homo sapiens, UniProt P01116, G12V); test: Raf1-KRAS G12V-GppNHP disruption HTRF assay (Biological Example 1); assay type: binding; conditions: KRAS G12V-GppNHp/RAF1 RBD HTRF
T1 construct: Avi-KRAS G12V (1-169)
How it was run: (§1)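 Percent activity versus DMSO (100%) was derived from HTRF signal after KRAS–RAF1 RBD protein mix was incubated 1 h at room temperature with shaking and detection reagents were added for a further 1 h.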

GP2d cells (KRAS G12D) = test: Cell-based pERK HTRF assay in GP2d cell (Biological Example 2); conditions: GP2d, GP2d (KRAS G12D) cells, pERK HTRF
How it was run: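 HTRF read-out of pERK (excitation 320 nm, emission 615 nm) after lysates sat 4–24 h at room temperature with Eu cryptate and d2 antibodies.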

[2] = target: T2, Avi-KRAS WT (1-169) GppNHp/RAF1 RBD-3xFLAG (52-151) (Homo sapiens, UniProt P01116); test: Raf1-KRAS WT-GppNHP disruption HTRF assay (Biological Example 1); assay type: binding; conditions: KRAS WT-GppNHp/RAF1 RBD HTRF
T2 construct: Avi-KRAS WT (1-169)
How it was run: as §1

[3] = target: T3, Avi-KRAS G12R (1-169) GppNHp/RAF1 RBD-3xFLAG (52-151) (Homo sapiens, UniProt P01116, G12R); test: Raf1-KRAS G12R-GppNHP disruption HTRF assay (Biological Example 1); assay type: binding; conditions: KRAS G12R-GppNHp/RAF1 RBD HTRF
T3 construct: Avi-KRAS G12R (1-169)
How it was run: as §1

SW620 cells (KRAS G12V) = test: Cell-based pERK HTRF assay in SW620 cell (Biological Example 4); conditions: Homo sapiens, SW-620, SW620 (KRAS G12V) cells, pERK HTRF
How it was run: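 Read-out: HTRF pERK signal (excitation 320 nm, emission 615 nm) from lysates of SW620 cells after 4 h compound exposure. Dose range was 9 points, half-log steps from 1 μM, in 0.25% DMSO; antibody incubation ran 4–24 h at room temperature.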

[4] = target: T4, Avi-KRAS G12D (1-169) GppNHp/RAF1 RBD-3xFLAG (52-151) (Homo sapiens, UniProt P01116, G12D); test: Raf1-KRAS G12D-GppNHP disruption HTRF assay (Biological Example 1); assay type: binding; conditions: KRAS G12D-GppNHp/RAF1 RBD HTRF
T4 construct: Avi-KRAS G12D (1-169)
How it was run: as §1

T4 sequence (P01116 1-169 isoform P01116-2 G12D): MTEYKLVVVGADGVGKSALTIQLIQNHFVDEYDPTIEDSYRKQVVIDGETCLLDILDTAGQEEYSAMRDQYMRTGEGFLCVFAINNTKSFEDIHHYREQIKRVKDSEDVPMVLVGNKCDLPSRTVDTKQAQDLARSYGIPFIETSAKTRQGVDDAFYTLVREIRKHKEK
T3 sequence (P01116 1-169 isoform P01116-2 G12R): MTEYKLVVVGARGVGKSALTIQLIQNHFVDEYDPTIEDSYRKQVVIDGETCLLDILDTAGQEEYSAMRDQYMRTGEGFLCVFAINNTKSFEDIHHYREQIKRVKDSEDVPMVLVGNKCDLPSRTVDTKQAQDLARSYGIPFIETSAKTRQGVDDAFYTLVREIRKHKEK
T2 sequence (P01116 1-169 isoform P01116-2): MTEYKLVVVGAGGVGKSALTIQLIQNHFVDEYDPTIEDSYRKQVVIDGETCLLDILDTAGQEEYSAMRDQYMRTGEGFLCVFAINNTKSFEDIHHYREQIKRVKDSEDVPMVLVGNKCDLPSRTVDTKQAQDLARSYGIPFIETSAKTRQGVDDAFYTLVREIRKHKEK
T1 sequence (P01116 1-169 isoform P01116-2 G12V): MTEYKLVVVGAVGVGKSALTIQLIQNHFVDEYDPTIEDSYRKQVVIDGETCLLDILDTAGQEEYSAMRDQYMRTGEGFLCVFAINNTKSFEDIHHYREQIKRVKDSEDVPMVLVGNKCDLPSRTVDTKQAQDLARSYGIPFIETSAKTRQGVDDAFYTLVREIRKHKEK

## CC(=O)N1C[C@@H](N(C)c2nc(OC[C@@]34CCCN3C[C@H](F)C4)nc3c(F)c(-c4ccc(F)c5sc(N)c(C#N)c45)c(C(F)(F)F)cc23)C[C@@H]1C [Compound 279]
[1]
  IC50: 100 to 1000 nM
GP2d cells (KRAS G12D)
  IC50: < 100 nM
[2]
  IC50: 100 to 1000 nM
[3]
  IC50: 100 to 1000 nM
SW620 cells (KRAS G12V)
  IC50: < 100 nM
[4]
  IC50: < 100 nM

## CN(c1nc(OC[C@@]23CCCN2C[C@H](F)C3)nc2c(F)c(-c3ccc(F)c4sc(N)c(C#N)c34)c(C(F)(F)F)cc12)[C@H]1CCCOC1 [Compound 280]
[1]
  IC50: 100 to 1000 nM
GP2d cells (KRAS G12D)
  IC50: < 100 nM
[2]
  IC50: 100 to 1000 nM
[3]
  IC50: 100 to 1000 nM
SW620 cells (KRAS G12V)
  IC50: < 100 nM
[4]
  IC50: 100 to 1000 nM

## CN1CC[C@H](N(C)c2nc(OC[C@@]34CCCN3C[C@H](F)C4)nc3c(F)c(-c4ccc(F)c5sc(N)c(C#N)c45)c(C(F)(F)F)cc23)CC1=O [Compound 281]
[1]
  IC50: 1000 to 10000 nM
GP2d cells (KRAS G12D)
  IC50: < 100 nM
[2]
  IC50: 100 to 1000 nM
[3]
  IC50: 100 to 1000 nM
SW620 cells (KRAS G12V)
  IC50: < 100 nM
[4]
  IC50: 100 to 1000 nM

## N#Cc1c(N)sc2c(F)ccc(-c3c(C(F)(F)F)cc4c(N5CCO[C@@H](CO)C5)nc(OC[C@@]56CCCN5C[C@H](F)C6)nc4c3F)c12 [Compound 282]
[1]
  IC50: 100 to 1000 nM
GP2d cells (KRAS G12D)
  IC50: < 100 nM
[2]
  IC50: < 100 nM
[3]
  IC50: 100 to 1000 nM
SW620 cells (KRAS G12V)
  IC50: < 100 nM
[4]
  IC50: < 100 nM

## COC[C@H]1CN(c2nc(OC[C@@]34CCCN3C[C@H](F)C4)nc3c(F)c(-c4ccc(F)c5sc(N)c(C#N)c45)c(C(F)(F)F)cc23)CCO1 [Compound 283]
[1]
  IC50: 100 to 1000 nM
GP2d cells (KRAS G12D)
  IC50: < 100 nM
[2]
  IC50: 100 to 1000 nM
[3]
  IC50: 100 to 1000 nM
SW620 cells (KRAS G12V)
  IC50: < 100 nM
[4]
  IC50: 100 to 1000 nM

## CC(=O)NCCN(C)c1nc(OC[C@@]23CCCN2C[C@H](F)C3)nc2c(F)c(-c3ccc(F)c4sc(N)c(C#N)c34)c(C(F)(F)F)cc12 [Compound 284]
[1]
  IC50: 100 to 1000 nM
GP2d cells (KRAS G12D)
  IC50: < 100 nM
[2]
  IC50: 100 to 1000 nM
[3]
  IC50: 100 to 1000 nM
SW620 cells (KRAS G12V)
  IC50: < 100 nM
[4]
  IC50: 100 to 1000 nM

## CN1C[C@H](N(C)c2nc(OC[C@@]34CCCN3C[C@H](F)C4)nc3c(F)c(-c4ccc(F)c5sc(N)c(C#N)c45)c(C(F)(F)F)cc23)CC1=O [Compound 285]
[1]
  IC50: 100 to 1000 nM
GP2d cells (KRAS G12D)
  IC50: < 100 nM
[2]
  IC50: 100 to 1000 nM
[3]
  IC50: 100 to 1000 nM
SW620 cells (KRAS G12V)
  IC50: < 100 nM
[4]
  IC50: 100 to 1000 nM

## CC(=O)N1CCC[C@H](N(C)c2nc(OC[C@@]34CCCN3C[C@H](F)C4)nc3c(F)c(-c4ccc(F)c5sc(N)c(C#N)c45)c(C(F)(F)F)cc23)C1 [Compound 289]
[1]
  IC50: 100 to 1000 nM
GP2d cells (KRAS G12D)
  IC50: < 100 nM
[2]
  IC50: 100 to 1000 nM
[3]
  IC50: 100 to 1000 nM
SW620 cells (KRAS G12V)
  IC50: < 100 nM
[4]
  IC50: 100 to 1000 nM

## N#Cc1c(N)sc2c(F)ccc(-c3c(C(F)(F)F)cc4c(N5CCCC[C@H](O)C5)nc(OC[C@@]56CCCN5C[C@H](F)C6)nc4c3F)c12 [Compound 290]
[1]
  IC50: 100 to 1000 nM
GP2d cells (KRAS G12D)
  IC50: < 100 nM
[2]
  IC50: 100 to 1000 nM
[3]
  IC50: 100 to 1000 nM
SW620 cells (KRAS G12V)
  IC50: < 100 nM
[4]
  IC50: 100 to 1000 nM

## N#Cc1c(N)sc2c(F)ccc(-c3c(C(F)(F)F)cc4c(N5CC6COC(C6)C5)nc(OC[C@@]56CCCN5C[C@H](F)C6)nc4c3F)c12 (stereo partly drawn) [Compound 292]
[1]
  IC50: 1000 to 10000 nM
GP2d cells (KRAS G12D)
  IC50: < 100 nM
[2]
  IC50: 100 to 1000 nM
[3]
  IC50: 100 to 1000 nM
SW620 cells (KRAS G12V)
  IC50: < 100 nM
[4]
  IC50: 100 to 1000 nM

## N#Cc1c(N)sc2c(F)ccc(-c3c(C(F)(F)F)cc4c(N5CC6COC[C@H]6C5)nc(OC[C@@]56CCCN5C[C@H](F)C6)nc4c3F)c12 (stereo partly drawn) [Compound 293]
[1]
  IC50: 1000 to 10000 nM
GP2d cells (KRAS G12D)
  IC50: < 100 nM
[2]
  IC50: 100 to 1000 nM
[3]
  IC50: 100 to 1000 nM
SW620 cells (KRAS G12V)
  IC50: < 100 nM
[4]
  IC50: 100 to 1000 nM

## N#Cc1c(N)sc2c(F)ccc(-c3c(C(F)(F)F)cc4c(N5CCn6cnnc6C5)nc(OC[C@@]56CCCN5C[C@H](F)C6)nc4c3F)c12 [Compound 294]
[1]
  IC50: 100 to 1000 nM
GP2d cells (KRAS G12D)
  IC50: 100 to 1000 nM
[2]
  IC50: 100 to 1000 nM
[3]
  IC50: 100 to 1000 nM
SW620 cells (KRAS G12V)
  IC50: 100 to 1000 nM
[4]
  IC50: 100 to 1000 nM

## CC(=O)N1CCC[C@@H](N(C)c2nc(OC[C@@]34CCCN3C[C@H](F)C4)nc3c(F)c(-c4ccc(F)c5sc(N)c(C#N)c45)c(C(F)(F)F)cc23)C1 [Compound 295]
[1]
  IC50: 100 to 1000 nM
GP2d cells (KRAS G12D)
  IC50: < 100 nM
[2]
  IC50: 100 to 1000 nM
[3]
  IC50: 100 to 1000 nM
SW620 cells (KRAS G12V)
  IC50: < 100 nM
[4]
  IC50: 100 to 1000 nM

## CC(=O)N1CCC(N(C)c2nc(OC[C@@]34CCCN3C[C@H](F)C4)nc3c(F)c(-c4ccc(F)c5sc(N)c(C#N)c45)c(C(F)(F)F)cc23)CC1 [Compound 296]
[1]
  IC50: 100 to 1000 nM
GP2d cells (KRAS G12D)
  IC50: < 100 nM
[2]
  IC50: 100 to 1000 nM
[3]
  IC50: 100 to 1000 nM
SW620 cells (KRAS G12V)
  IC50: 100 to 1000 nM
[4]
  IC50: 100 to 1000 nM

## N#Cc1c(N)sc2c(F)ccc(-c3c(C(F)(F)F)cc4c(N5CCS(=N)(=O)CC5)nc(OC[C@@]56CCCN5C[C@H](F)C6)nc4c3F)c12 [Compound 297]
[1]
  IC50: 100 to 1000 nM
GP2d cells (KRAS G12D)
  IC50: < 100 nM
[2]
  IC50: 100 to 1000 nM
[3]
  IC50: 100 to 1000 nM
SW620 cells (KRAS G12V)
  IC50: < 100 nM
[4]
  IC50: 100 to 1000 nM

## CCC(=O)N1CC[C@@H](N(C)c2nc(OC[C@@]34CCCN3C[C@H](F)C4)nc3c(F)c(-c4ccc(F)c5sc(N)c(C#N)c45)c(C(F)(F)F)cc23)[C@@H]1C [Compound 299]
[1]
  IC50: 1000 to 10000 nM
GP2d cells (KRAS G12D)
  IC50: < 100 nM
[2]
  IC50: 100 to 1000 nM
[3]
  IC50: 1000 to 10000 nM
SW620 cells (KRAS G12V)
  IC50: < 100 nM
[4]
  IC50: 100 to 1000 nM

## CC(C)C(=O)N1CC[C@@H](N(C)c2nc(OC[C@@]34CCCN3C[C@H](F)C4)nc3c(F)c(-c4ccc(F)c5sc(N)c(C#N)c45)c(C(F)(F)F)cc23)[C@@H]1C [Compound 300]
[1]
  IC50: 1000 to 10000 nM
GP2d cells (KRAS G12D)
  IC50: < 100 nM
[2]
  IC50: 100 to 1000 nM
[3]
  IC50: 1000 to 10000 nM
SW620 cells (KRAS G12V)
  IC50: 100 to 1000 nM
[4]
  IC50: 100 to 1000 nM

## C[C@H]1[C@H](N(C)c2nc(OC[C@@]34CCCN3C[C@H](F)C4)nc3c(F)c(-c4ccc(F)c5sc(N)c(C#N)c45)c(C(F)(F)F)cc23)CCN1C(=O)C1CC1 [Compound 301]
[1]
  IC50: 1000 to 10000 nM
GP2d cells (KRAS G12D)
  IC50: < 100 nM
[2]
  IC50: 100 to 1000 nM
[3]
  IC50: 1000 to 10000 nM
SW620 cells (KRAS G12V)
  IC50: < 100 nM
[4]
  IC50: 100 to 1000 nM

## C[C@H]1CS(=O)(=O)CCN1c1nc(OC[C@@]23CCCN2C[C@H](F)C3)nc2c(F)c(-c3ccc(F)c4sc(N)c(C#N)c34)c(C(F)(F)F)cc12 [Compound 302]
[1]
  IC50: 1000 to 10000 nM
GP2d cells (KRAS G12D)
  IC50: < 100 nM
[2]
  IC50: 100 to 1000 nM
[3]
  IC50: 100 to 1000 nM
SW620 cells (KRAS G12V)
  IC50: < 100 nM
[4]
  IC50: 100 to 1000 nM

## CC(=O)N1C[C@@H](C)[C@H](N(C)c2nc(OC[C@@]34CCCN3C[C@H](F)C4)nc3c(F)c(-c4ccc(F)c5sc(N)c(C#N)c45)c(C(F)(F)F)cc23)C1 [Compound 303]
[1]
  IC50: 100 to 1000 nM
GP2d cells (KRAS G12D)
  IC50: < 100 nM
[2]
  IC50: 100 to 1000 nM
[3]
  IC50: 100 to 1000 nM
SW620 cells (KRAS G12V)
  IC50: 100 to 1000 nM
[4]
  IC50: 100 to 1000 nM
